According to PubChem BioAssay (NCI):
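Cultured in 96-well plates, cells were exposed to test compound for 48 hours across five concentrations. GI50 is the concentration that inhibits growth by half. TGI denotes the concentration required for complete inhibition of growth.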

What was measured:
Experiment in all cases: growth of human tumour cells (NCI), 48 h
786-0 renal = system: 786-0 renal
A498 renal = system: A498 renal
A549 NSCLC = system: A549 NSCLC
ACHN renal = system: ACHN renal
BT-549 breast = system: BT-549 breast
CAKI-1 renal = system: CAKI-1 renal
CCRF-CEM leukemia = system: CCRF-CEM leukemia
COLO 205 colon = system: COLO 205 colon
DU-145 prostate = system: DU-145 prostate
HCC-2998 colon = system: HCC-2998 colon
HCT-116 colon = system: HCT-116 colon
HCT-15 colon = system: HCT-15 colon
HL-60(TB) leukemia = system: HL-60(TB) leukemia
HOP-62 NSCLC = system: HOP-62 NSCLC
HOP-92 NSCLC = system: HOP-92 NSCLC
HS 578T breast = system: HS 578T breast
HT29 colon = system: HT29 colon
IGROV1 ovarian = system: IGROV1 ovarian
K-562 leukemia = system: K-562 leukemia
KM12 colon = system: KM12 colon
LOX IMVI melanoma = system: LOX IMVI melanoma
M14 melanoma = system: M14 melanoma
MALME-3M melanoma = system: MALME-3M melanoma
MCF7 breast = system: MCF7 breast
MDA-MB-231 breast = system: MDA-MB-231 breast
MDA-MB-435 = system: MDA-MB-435
MOLT-4 leukemia = system: MOLT-4 leukemia
NCI-H226 lung = system: NCI-H226 lung
NCI-H23 lung = system: NCI-H23 lung
NCI-H460 lung = system: NCI-H460 lung
NCI-H522 lung = system: NCI-H522 lung
NCI/ADR-RES ovarian = system: NCI/ADR-RES ovarian
OVCAR-3 ovarian = system: OVCAR-3 ovarian
OVCAR-4 ovarian = system: OVCAR-4 ovarian
OVCAR-5 ovarian = system: OVCAR-5 ovarian
OVCAR-8 ovarian = system: OVCAR-8 ovarian
PC-3 prostate = system: PC-3 prostate
RPMI-8226 leukemia = system: RPMI-8226 leukemia
RXF 393 renal = system: RXF 393 renal
SF-268 CNS = system: SF-268 CNS
SF-295 CNS = system: SF-295 CNS
SF-539 CNS = system: SF-539 CNS
SK-MEL-2 melanoma = system: SK-MEL-2 melanoma
SK-MEL-28 melanoma = system: SK-MEL-28 melanoma
SK-MEL-5 melanoma = system: SK-MEL-5 melanoma
SK-OV-3 ovarian = system: SK-OV-3 ovarian
SN12C renal = system: SN12C renal
SNB-19 CNS = system: SNB-19 CNS
SNB-75 CNS = system: SNB-75 CNS
SR leukemia = system: SR leukemia
SW-620 colon = system: SW-620 colon
T-47D breast = system: T-47D breast
TK-10 renal = system: TK-10 renal
U251 CNS = system: U251 CNS
UACC-257 melanoma = system: UACC-257 melanoma
UACC-62 melanoma = system: UACC-62 melanoma
UO-31 renal = system: UO-31 renal

For c1ccc(CSc2nnc3c4c5c(sc4nc(-c4cccnc4)n23)CCCCCC5)cc1, which GI50 (786-0 renal) is on record?
The GI50 was 3.63 µM.

What about the TGI (786-0 renal) of the same molecule?
The TGI was 14.2 µM.

What about the GI50 (A498 renal) of the same molecule?
The GI50 was 2.24 µM.

And the GI50 (A549 NSCLC)?
Its GI50 is 2.8 µM.

And the TGI (A549 NSCLC)?
The TGI was 13.4 µM.

What about the GI50 (ACHN renal) of the same molecule?
Its GI50 is 2.98 µM.

And the TGI (ACHN renal)?
The TGI was 10.5 µM.

What about the GI50 (BT-549 breast) of the same molecule?
The GI50 was 2.8 µM.

What about the TGI (BT-549 breast) of the same molecule?
The TGI was 9.04 µM.

And the GI50 (CAKI-1 renal)?
The GI50 was 3.43 µM.

What about the TGI (CAKI-1 renal) of the same molecule?
The TGI was 15.7 µM.

And the GI50 (CCRF-CEM leukemia)?
Its GI50 is 1.11 µM.

What about the TGI (CCRF-CEM leukemia) of the same molecule?
Its TGI is 15.5 µM.

What about the GI50 (COLO 205 colon) of the same molecule?
The GI50 was 1.55 µM.

And the TGI (COLO 205 colon)?
The TGI was 3.33 µM.

What about the GI50 (DU-145 prostate) of the same molecule?
The GI50 was 3.42 µM.

And the TGI (DU-145 prostate)?
Its TGI is 14.4 µM.

What about the GI50 (HCC-2998 colon) of the same molecule?
The GI50 was 4.21 µM.

What about the TGI (HCC-2998 colon) of the same molecule?
Its TGI is 15.3 µM.

And the GI50 (HCT-116 colon)?
The GI50 was 2.77 µM.

And the TGI (HCT-116 colon)?
The TGI was 11.3 µM.

And the GI50 (HCT-15 colon)?
The GI50 was 4.51 µM.

And the TGI (HCT-15 colon)?
The TGI was 17 µM.

And the GI50 (HL-60(TB) leukemia)?
The GI50 was 1.84 µM.

And the TGI (HL-60(TB) leukemia)?
Its TGI is 5.27 µM.

What about the GI50 (HOP-62 NSCLC) of the same molecule?
The GI50 was 2.96 µM.

And the TGI (HOP-62 NSCLC)?
Its TGI is 12.3 µM.

What about the GI50 (HOP-92 NSCLC) of the same molecule?
The GI50 was 1.7 µM.

What about the TGI (HOP-92 NSCLC) of the same molecule?
Its TGI is 7.24 µM.

What about the GI50 (HS 578T breast) of the same molecule?
The GI50 was 3.84 µM.

What about the TGI (HS 578T breast) of the same molecule?
The TGI was 28.6 µM.

What about the GI50 (HT29 colon) of the same molecule?
The GI50 was 2.78 µM.

What about the TGI (HT29 colon) of the same molecule?
The TGI was 10.9 µM.

And the GI50 (IGROV1 ovarian)?
The GI50 was 4.18 µM.

What about the TGI (IGROV1 ovarian) of the same molecule?
The TGI was 19.2 µM.

And the GI50 (K-562 leukemia)?
Its GI50 is 2.34 µM.

And the TGI (K-562 leukemia)?
Its TGI is 10.4 µM.

And the GI50 (KM12 colon)?
The GI50 was 2.6 µM.

And the TGI (KM12 colon)?
The TGI was 10.5 µM.

What about the GI50 (LOX IMVI melanoma) of the same molecule?
The GI50 was 3.08 µM.

And the TGI (LOX IMVI melanoma)?
Its TGI is 11.1 µM.

And the GI50 (M14 melanoma)?
Its GI50 is 3.75 µM.

And the TGI (M14 melanoma)?
The TGI was 16.9 µM.

And the GI50 (MALME-3M melanoma)?
Its GI50 is 2.76 µM.

And the TGI (MALME-3M melanoma)?
The TGI was 7.52 µM.

And the GI50 (MCF7 breast)?
Its GI50 is 2.64 µM.

What about the TGI (MCF7 breast) of the same molecule?
Its TGI is 11.2 µM.

What about the GI50 (MDA-MB-231 breast) of the same molecule?
The GI50 was 2.18 µM.

What about the TGI (MDA-MB-231 breast) of the same molecule?
Its TGI is 7.15 µM.

What about the GI50 (MDA-MB-435) of the same molecule?
The GI50 was 2.61 µM.

And the TGI (MDA-MB-435)?
Its TGI is 9.88 µM.

And the GI50 (MOLT-4 leukemia)?
The GI50 was 3 µM.

What about the TGI (MOLT-4 leukemia) of the same molecule?
The TGI was 11.3 µM.

And the GI50 (NCI-H226 lung)?
Its GI50 is 2.03 µM.

What about the TGI (NCI-H226 lung) of the same molecule?
The TGI was 9.96 µM.

And the GI50 (NCI-H23 lung)?
Its GI50 is 2.74 µM.

What about the TGI (NCI-H23 lung) of the same molecule?
Its TGI is 8.33 µM.

And the GI50 (NCI-H460 lung)?
The GI50 was 2.97 µM.

And the TGI (NCI-H460 lung)?
Its TGI is 11.1 µM.

What about the GI50 (NCI-H522 lung) of the same molecule?
The GI50 was 1.39 µM.

What about the TGI (NCI-H522 lung) of the same molecule?
The TGI was 5.07 µM.

And the GI50 (NCI/ADR-RES ovarian)?
The GI50 was 14.1 µM.

What about the TGI (NCI/ADR-RES ovarian) of the same molecule?
Its TGI is 38.1 µM.

And the GI50 (OVCAR-3 ovarian)?
The GI50 was 2.86 µM.

And the TGI (OVCAR-3 ovarian)?
Its TGI is 12.4 µM.

What about the GI50 (OVCAR-4 ovarian) of the same molecule?
Its GI50 is 2.08 µM.

What about the TGI (OVCAR-4 ovarian) of the same molecule?
The TGI was 10.2 µM.

And the GI50 (OVCAR-5 ovarian)?
The GI50 was 4.99 µM.

And the TGI (OVCAR-5 ovarian)?
Its TGI is 17.5 µM.

And the GI50 (OVCAR-8 ovarian)?
Its GI50 is 2.86 µM.

And the TGI (OVCAR-8 ovarian)?
Its TGI is 13.2 µM.

What about the GI50 (PC-3 prostate) of the same molecule?
Its GI50 is 2.36 µM.

What about the TGI (PC-3 prostate) of the same molecule?
Its TGI is 10.8 µM.

And the GI50 (RPMI-8226 leukemia)?
Its GI50 is 1.87 µM.

And the TGI (RPMI-8226 leukemia)?
The TGI was 12.5 µM.

What about the GI50 (RXF 393 renal) of the same molecule?
The GI50 was 2.79 µM.

And the TGI (RXF 393 renal)?
Its TGI is 13.1 µM.

What about the GI50 (SF-268 CNS) of the same molecule?
Its GI50 is 4.57 µM.

What about the TGI (SF-268 CNS) of the same molecule?
Its TGI is 17.8 µM.

And the GI50 (SF-295 CNS)?
The GI50 was 2.8 µM.

What about the TGI (SF-295 CNS) of the same molecule?
Its TGI is 11.8 µM.

What about the GI50 (SF-539 CNS) of the same molecule?
Its GI50 is 3.51 µM.

What about the TGI (SF-539 CNS) of the same molecule?
Its TGI is 12.9 µM.

What about the GI50 (SK-MEL-2 melanoma) of the same molecule?
Its GI50 is 2.05 µM.

What about the TGI (SK-MEL-2 melanoma) of the same molecule?
Its TGI is 6.02 µM.

And the GI50 (SK-MEL-28 melanoma)?
The GI50 was 3.35 µM.

And the TGI (SK-MEL-28 melanoma)?
Its TGI is 14.1 µM.

And the GI50 (SK-MEL-5 melanoma)?
Its GI50 is 1.37 µM.

What about the TGI (SK-MEL-5 melanoma) of the same molecule?
Its TGI is 2.68 µM.

What about the GI50 (SK-OV-3 ovarian) of the same molecule?
The GI50 was 2.75 µM.

What about the TGI (SK-OV-3 ovarian) of the same molecule?
The TGI was 9.54 µM.

What about the GI50 (SN12C renal) of the same molecule?
Its GI50 is 2.99 µM.

What about the TGI (SN12C renal) of the same molecule?
The TGI was 11.8 µM.

What about the GI50 (SNB-19 CNS) of the same molecule?
Its GI50 is 3.96 µM.

And the TGI (SNB-19 CNS)?
The TGI was 16.2 µM.

What about the GI50 (SNB-75 CNS) of the same molecule?
Its GI50 is 2.58 µM.

What about the TGI (SNB-75 CNS) of the same molecule?
The TGI was 10.3 µM.

What about the GI50 (SR leukemia) of the same molecule?
The GI50 was 2.59 µM.

What about the TGI (SR leukemia) of the same molecule?
The TGI was 10.1 µM.

And the GI50 (SW-620 colon)?
The GI50 was 3.09 µM.

What about the TGI (SW-620 colon) of the same molecule?
The TGI was 13.3 µM.

What about the GI50 (T-47D breast) of the same molecule?
The GI50 was 0.495 µM.

What about the TGI (T-47D breast) of the same molecule?
Its TGI is 12.3 µM.

What about the GI50 (TK-10 renal) of the same molecule?
The GI50 was 3.83 µM.

And the TGI (TK-10 renal)?
Its TGI is 12.6 µM.

And the GI50 (U251 CNS)?
Its GI50 is 2.2 µM.

What about the TGI (U251 CNS) of the same molecule?
Its TGI is 12 µM.

What about the GI50 (UACC-257 melanoma) of the same molecule?
The GI50 was 2.12 µM.

And the TGI (UACC-257 melanoma)?
The TGI was 8.74 µM.

And the GI50 (UACC-62 melanoma)?
Its GI50 is 1.91 µM.

And the TGI (UACC-62 melanoma)?
The TGI was 7.23 µM.

What about the GI50 (UO-31 renal) of the same molecule?
Its GI50 is 3.73 µM.

What about the TGI (UO-31 renal) of the same molecule?
Its TGI is 15.1 µM.
